Read-outs that look alike come from different tables or passages of the source.
Legend:
NS3/NS4 complexes = NS3/NS4 complexes (Hepatitis C virus genotype 1a, UniProt P27958); experiment: NS3/NS4 inhibition activity (IC50); type: biochemical; settings: Table 2, read-out: IC50
Description: NS3-NS4 inhibition activity can be determined using known assay methods. For example, NS3/NS4 complexes may be formed and inhibitory concentrations of test compounds determined as described in U.S. Patent Application Publication Number 2007/0054842 paragraph numbers 1497-1509, which is incorporated herein by reference in its entirety. Similarly, hepatitis C replicon EC50 may be determined using known assay methods such as described in U.S. Patent Application Publication Number 2007/0054842 paragraph numbers 1510-1515. Assays may be conducted at ambient temperature (23° C.) in assay buffer containing 50 mM Tris-HCl, pH 7.5, 15% glycerol, 0.6 mM Lauryldimethylamine Oxide (LDAO), 25 μM NS4A peptide, and 10 mM Dithiothreitol (DTT).

hepatitis C replicon = hepatitis C replicon EC50; type: cell-based; settings: Hepatitis C virus
Description: NS3-NS4 inhibition activity can be determined using known assay methods.

[1] = Table 2, hepatitis C replicon, read-out: EC50

NS3/NS4 complexes, sequence (P27958 1027-1657): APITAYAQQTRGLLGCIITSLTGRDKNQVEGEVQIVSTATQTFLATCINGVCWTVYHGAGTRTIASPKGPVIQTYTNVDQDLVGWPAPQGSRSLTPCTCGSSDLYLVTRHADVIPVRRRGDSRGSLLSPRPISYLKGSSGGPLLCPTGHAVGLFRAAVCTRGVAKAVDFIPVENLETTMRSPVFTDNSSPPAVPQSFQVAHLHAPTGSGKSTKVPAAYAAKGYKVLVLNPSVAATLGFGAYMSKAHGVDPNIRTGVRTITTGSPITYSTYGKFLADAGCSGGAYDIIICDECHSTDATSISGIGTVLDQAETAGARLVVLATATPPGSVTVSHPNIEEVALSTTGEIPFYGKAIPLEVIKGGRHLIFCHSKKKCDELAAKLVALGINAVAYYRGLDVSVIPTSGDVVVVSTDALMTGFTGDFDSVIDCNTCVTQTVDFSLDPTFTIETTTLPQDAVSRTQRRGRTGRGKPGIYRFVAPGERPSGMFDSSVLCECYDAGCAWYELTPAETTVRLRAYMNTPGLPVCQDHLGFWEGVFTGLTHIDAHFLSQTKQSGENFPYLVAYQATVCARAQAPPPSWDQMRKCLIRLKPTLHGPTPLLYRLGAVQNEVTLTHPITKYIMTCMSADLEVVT
NS3/NS4 complexes, sequence (P27958 1658-1711): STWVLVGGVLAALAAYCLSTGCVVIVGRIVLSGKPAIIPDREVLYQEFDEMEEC

Row | Compound | IC50 (NS3/NS4 complexes) | EC50 (hepatitis C replicon; [1]) | EC50 (hepatitis C replicon; read-out: EC50 nM)
1 | O=C1N[C@]2(C(=O)O)C[C@H]2/C=C\CCCCC[C@H](Nc2cccc(C(F)(F)F)c2)C(=O)N2C[C@H](Oc3nc4ccccc4s3)C[C@@H]12 [Compound 110] | 10 to 75 nM | > 500 nM | 
2 | CC(C)(C)c1csc(N[C@H]2CCCCC/C=C\[C@@H]3C[C@@]3(C(=O)O)NC(=O)[C@@H]3C[C@@H](Oc4nc5ccccc5s4)CN3C2=O)n1 [Compound 119] | 10 to 75 nM | > 500 nM | 
3 | O=C1N[C@]2(C(=O)NS(=O)(=O)C3CC3)C[C@H]2/C=C\CCCCC[C@H](Nc2ccccc2)C(=O)N2C[C@H](Oc3nc4ccccc4s3)C[C@@H]12 [Compound 157] | < 10 nM | 10 to 75 nM | 
4 | COc1ccc2c(O[C@@H]3C[C@H]4C(=O)N[C@]5(C(=O)NS(=O)(=O)C6CC6)C[C@H]5/C=C\CCCCC[C@H](Nc5ccccc5)C(=O)N4C3)cc(-c3ccccc3)nc2c1 [Compound 164] | < 10 nM | < 10 nM | 
5 | O=C1N[C@]2(C(=O)NS(=O)(=O)C3CC3)C[C@H]2/C=C\CCCCC[C@H](NCc2ccccc2)C(=O)N2C[C@H](Oc3nc4ccccc4s3)C[C@@H]12 [Compound 197] | < 10 nM | 10 to 75 nM | 
6 | CC1(S(=O)(=O)NC(=O)[C@@]23C[C@H]2/C=C\CCCCC[C@H](Nc2ccccc2)C(=O)N2C[C@H](Oc4nc5ccccc5s4)C[C@H]2C(=O)N3)CC1 [Compound 213] | < 10 nM | 10 to 75 nM | 
7 | CC1(S(=O)(=O)NC(=O)[C@@]23C[C@H]2/C=C\CCCCC[C@H](Nc2ccccc2)C(=O)N2C[C@H](Oc4nc5ccc(Br)cc5s4)C[C@H]2C(=O)N3)CC1 [Compound 214] | < 10 nM | 75 to 500 nM | 
8 | CC1(S(=O)(=O)NC(=O)[C@@]23C[C@H]2/C=C\CCCCC[C@H](Nc2ccccc2)C(=O)N2C[C@H](Oc4nc5ccc(Cl)cc5s4)C[C@H]2C(=O)N3)CC1 [Compound 217] | < 10 nM | 75 to 500 nM | 
9 | Cc1ccc2nc(O[C@@H]3C[C@H]4C(=O)N[C@]5(C(=O)NS(=O)(=O)C6(C)CC6)C[C@H]5/C=C\CCCCC[C@H](Nc5ccccc5)C(=O)N4C3)sc2c1 [Compound 218] | < 10 nM | 75 to 500 nM | 
10 | COc1ccc2c(O[C@@H]3C[C@H]4C(=O)N[C@]5(C(=O)NS(=O)(=O)C6(C)CC6)C[C@H]5/C=C\CCCCC[C@H](Nc5ccccc5)C(=O)N4C3)cc(-c3ccccc3)nc2c1 [Compound 220] | < 10 nM | < 10 nM | 
11 | CC1(S(=O)(=O)NC(=O)[C@@]23C[C@H]2/C=C\CCCCC[C@H](Nc2ccccc2)C(=O)N2C[C@H](Oc4nccc5ccccc45)C[C@H]2C(=O)N3)CC1 [Compound 221] | < 10 nM | 10 to 75 nM | 
12 | CC1(S(=O)(=O)NC(=O)[C@@]23C[C@H]2/C=C\CCCCC[C@H](Nc2cccc(C(F)(F)F)c2)C(=O)N2C[C@H](Oc4nc5ccccc5s4)C[C@H]2C(=O)N3)CC1 [Compound 222] | < 10 nM | 75 to 500 nM | 
13 | CC1(S(=O)(=O)NC(=O)[C@@]23C[C@H]2/C=C\CCCCC[C@H](Nc2cccc(C(F)(F)F)c2)C(=O)N2C[C@H](Oc4nc5ccc(Br)cc5s4)C[C@H]2C(=O)N3)CC1 [Compound 223] | < 10 nM | 75 to 500 nM | 
14 | CC1(S(=O)(=O)NC(=O)[C@@]23C[C@H]2/C=C\CCCCC[C@H](Nc2cccc(C(F)(F)F)c2)C(=O)N2C[C@H](Oc4nc5ccc(Cl)cc5s4)C[C@H]2C(=O)N3)CC1 [Compound 226] | < 10 nM | 75 to 500 nM | 
15 | Cc1ccc2nc(O[C@@H]3C[C@H]4C(=O)N[C@]5(C(=O)NS(=O)(=O)C6(C)CC6)C[C@H]5/C=C\CCCCC[C@H](Nc5cccc(C(F)(F)F)c5)C(=O)N4C3)sc2c1 [Compound 227] | < 10 nM | 75 to 500 nM | 
16 | COc1ccc2c(O[C@@H]3C[C@H]4C(=O)N[C@]5(C(=O)NS(=O)(=O)C6(C)CC6)C[C@H]5/C=C\CCCCC[C@H](Nc5cccc(C(F)(F)F)c5)C(=O)N4C3)cc(-c3ccccc3)nc2c1 [Compound 229] | < 10 nM | < 10 nM | 
17 | CC1(S(=O)(=O)NC(=O)[C@@]23C[C@H]2/C=C\CCCCC[C@H](Nc2cccc(C(F)(F)F)c2)C(=O)N2C[C@H](Oc4nccc5ccccc45)C[C@H]2C(=O)N3)CC1 [Compound 230] | < 10 nM | < 10 nM | 
18 | CC(C)(C)c1csc(N[C@H]2CCCCC/C=C\[C@@H]3C[C@@]3(C(=O)NS(=O)(=O)C3(C)CC3)NC(=O)[C@@H]3C[C@@H](Oc4nc5ccccc5s4)CN3C2=O)n1 [Compound 231] | < 10 nM | 10 to 75 nM | 
19 | CC1(S(=O)(=O)NC(=O)[C@@]23C[C@H]2/C=C\CCCCC[C@H](Nc2cccc(F)c2)C(=O)N2C[C@H](Oc4nc5ccccc5s4)C[C@H]2C(=O)N3)CC1 [Compound 235] | < 10 nM | 10 to 75 nM | 
20 | COc1ccc2c(O[C@@H]3C[C@H]4C(=O)N[C@]5(C(=O)NS(=O)(=O)C6(C)CC6)C[C@H]5/C=C\CCCCC[C@H](Nc5cccc(F)c5)C(=O)N4C3)cc(-c3ccccc3)nc2c1 [Compound 242] | < 10 nM | < 10 nM | 

Row | Compound | IC50 (NS3/NS4 complexes) | EC50 (hepatitis C replicon; [1]) | EC50 (hepatitis C replicon; read-out: EC50 nM)
21 | CC1(S(=O)(=O)NC(=O)[C@@]23C[C@H]2/C=C\CCCCC[C@H](Nc2cccc(F)c2)C(=O)N2C[C@H](Oc4nccc5ccccc45)C[C@H]2C(=O)N3)CC1 [Compound 243] | < 10 nM | 10 to 75 nM | 
22 | COc1cccc(N[C@H]2CCCCC/C=C\[C@@H]3C[C@@]3(C(=O)NS(=O)(=O)C3(C)CC3)NC(=O)[C@@H]3C[C@@H](Oc4nc5ccccc5s4)CN3C2=O)c1 [Compound 244] | < 10 nM | 10 to 75 nM | 
23 | CC1(S(=O)(=O)NC(=O)[C@@]23C[C@H]2/C=C\CCCCC[C@H](NCc2ccccc2)C(=O)N2C[C@H](Oc4nc5ccccc5s4)C[C@H]2C(=O)N3)CC1 [Compound 253] | < 10 nM | 10 to 75 nM | 
24 | O=C1N[C@]2(C(=O)NOc3ccccc3)C[C@H]2/C=C\CCCCC[C@H](NCc2ccccc2)C(=O)N2C[C@H](Oc3nc4ccccc4s3)C[C@@H]12 [Compound 309] | 75 to 500 nM | > 500 nM | 
25 | CC(=O)N(Cc1ccccc1)[C@H]1CCCCC/C=C\[C@@H]2C[C@@]2(C(=O)NS(=O)(=O)C2(C)CC2)NC(=O)[C@@H]2C[C@@H](Oc3nc4ccccc4s3)CN2C1=O [Compound 315] | 10 to 75 nM | > 500 nM | 
26 | CC(=O)N(Cc1ccccc1)[C@H]1CCCCC/C=C\[C@@H]2C[C@@]2(C(=O)NS(=O)(=O)C2CC2)NC(=O)[C@@H]2C[C@@H](Oc3nc4ccccc4s3)CN2C1=O [Compound 316] | 10 to 75 nM |  | > 500 nM
27 | CS(=O)(=O)N(Cc1ccccc1)[C@H]1CCCCC/C=C\[C@@H]2C[C@@]2(C(=O)NS(=O)(=O)C2CC2)NC(=O)[C@@H]2C[C@@H](Oc3nc4ccccc4s3)CN2C1=O [Compound 317] | 75 to 500 nM | > 500 nM | 
28 | CCn1c(O[C@@H]2C[C@H]3C(=O)N[C@]4(C(=O)O)C[C@H]4/C=C\CCCCC[C@H](Nc4cc(F)cc(C(F)(F)F)c4)C(=O)N3C2)nc2ccccc21 [Compound 318] | < 10 nM | > 500 nM | 
29 | CCn1c(O[C@@H]2C[C@H]3C(=O)N[C@]4(C(=O)NS(=O)(=O)C5(C)CC5)C[C@H]4/C=C\CCCCC[C@H](Nc4cc(F)cc(C(F)(F)F)c4)C(=O)N3C2)nc2ccccc21 [Compound 319] | < 10 nM | < 10 nM | 
30 | CC(C)n1c(O[C@@H]2C[C@H]3C(=O)N[C@]4(C(=O)O)C[C@H]4/C=C\CCCCC[C@H](Nc4cc(F)cc(C(F)(F)F)c4)C(=O)N3C2)nc2ccccc21 [Compound 320] | < 10 nM | < 10 nM | 
31 | O=C1N[C@]2(C(=O)O)C[C@H]2/C=C\CCCCC[C@H](Nc2ccc(-c3ccccc3)cc2)C(=O)N2C[C@H](Oc3nc4ccccc4s3)C[C@@H]12 [Compound 325] | 75 to 500 nM | > 500 nM | 
32 | CC1(S(=O)(=O)NC(=O)[C@@]23C[C@H]2/C=C\CCCCC[C@H](Nc2ccc(-c4ccccc4)cc2)C(=O)N2C[C@H](Oc4nc5ccccc5s4)C[C@H]2C(=O)N3)CC1 [Compound 326] | < 10 nM | > 500 nM | 
33 | CC1(S(=O)(=O)NC(=O)[C@@]23C[C@H]2/C=C\CCCCC[C@H](Nc2cc(F)cc(F)c2)C(=O)N2C[C@H](Oc4nc5ccccc5s4)C[C@H]2C(=O)N3)CC1 [Compound 328] | < 10 nM | 10 to 75 nM | 
34 | CC1(S(=O)(=O)NC(=O)[C@@]23C[C@H]2/C=C\CCCCC[C@H](Nc2ccc(C(F)(F)F)cc2)C(=O)N2C[C@H](Oc4nc5ccccc5s4)C[C@H]2C(=O)N3)CC1 [Compound 330] | < 10 nM | 75 to 500 nM | 
35 | O=C1N[C@]2(C(=O)O)C[C@H]2/C=C\CCCCC[C@H](Nc2ccc(Cl)cc2)C(=O)N2C[C@H](Oc3nc4ccccc4s3)C[C@@H]12 [Compound 331] | 75 to 500 nM | > 500 nM | 
36 | CC1(S(=O)(=O)NC(=O)[C@@]23C[C@H]2/C=C\CCCCC[C@H](Nc2ccc(Cl)cc2)C(=O)N2C[C@H](Oc4nc5ccccc5s4)C[C@H]2C(=O)N3)CC1 [Compound 332] | < 10 nM | 75 to 500 nM | 
37 | O=C1N[C@]2(C(=O)O)C[C@H]2/C=C\CCCCC[C@H](Nc2ccc(Cl)c(Cl)c2)C(=O)N2C[C@H](Oc3nc4ccccc4s3)C[C@@H]12 [Compound 333] | 75 to 500 nM | > 500 nM | 
38 | CC1(S(=O)(=O)NC(=O)[C@@]23C[C@H]2/C=C\CCCCC[C@H](Nc2ccc(Cl)c(Cl)c2)C(=O)N2C[C@H](Oc4nc5ccccc5s4)C[C@H]2C(=O)N3)CC1 [Compound 334] | < 10 nM | 75 to 500 nM | 
39 | O=C1N[C@]2(C(=O)O)C[C@H]2/C=C\CCCCC[C@H](Nc2cccc(Cl)c2)C(=O)N2C[C@H](Oc3nc4ccccc4s3)C[C@@H]12 [Compound 335] | 10 to 75 nM | > 500 nM | 
40 | CC1(S(=O)(=O)NC(=O)[C@@]23C[C@H]2/C=C\CCCCC[C@H](Nc2cc(C(F)(F)F)cc(C(F)(F)F)c2)C(=O)N2C[C@H](Oc4nc5ccccc5s4)C[C@H]2C(=O)N3)CC1 [Compound 336] | < 10 nM | 75 to 500 nM | 
